GI50 and TGI data for 13 compounds are collected here from PubChem BioAssay (NCI).

Holding throughout (test): NCI-60 cell line screen, 48 h
The test system of test [1] is ACHN renal.
Test [2] deals with MALME-3M melanoma.
Test [3] relates to NCI-H226 lung.
Test [4] has as its system KM12 colon.
Test [5] concerns SW-620 colon.
The subject of test [6] is CCRF-CEM leukemia.
The test system of test [7] is RPMI-8226 leukemia.
Test [8] concerns NCI/ADR-RES ovarian.
Test [9] has as its system PC-3 prostate.
Test [10] relates to BT-549 breast.

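Assay format: 96-well plates, 48-hour exposure. GI50 marks 50% less growth. TGI is the concentration that stops growth completely.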 Where a SMILES comes first, the peptide text is derived from it. Bridges are numbered along the chain shown (N, C = ends). Roman numbers before positions name the chains, in order. [ ]: non-standard residue; d: D form. The star is where a group is joined. Quinoxaline2carbonyl = O=C(c1cnc2ccccc2n1)*; NMeV = CN[CH](C(=O)O)C(C)C; NMeC = CN[CH](CS)C(=O)O

With `COc1ccc2cc(-c3c(-c4ccncc4)nc(-c4ccc(S(C)=O)cc4)n3C)ccc2c1` (stereo not drawn), the GI50 in test [1] is 20.2 µM; in [2], 24.5 µM; in test [3] it was over 9.95 µM; in test [4], over 24.1 µM; in test [5] it was over 25 µM; in test [6], over 21.6 µM. The GI50 in test [7] was 17 µM; in test [8], over 22.9 µM; in [9], over 21.3 µM; in [10], 21.1 µM. Further, the TGI in test [1], in [2], in test [3], in test [4], in [5] and in [6] was over 25 µM each time. The TGI in test [7], in test [8], in test [9] and in test [10] was over 25 µM in each case.

Regarding `CN1CCC(n2cnc(-c3ccc(F)cc3)c2-c2ccnc(N)n2)CC1`, the GI50 is 5.71 µM in test [1]; 8.77 µM in test [2]; 10.9 µM in test [3]; 8.64 µM in [4]; 5.93 µM in [5]; 14.4 µM in [6]. The GI50 in [7] is 16.6 µM; in test [8], 7.55 µM; in [9], 9.28 µM; in test [10], 15.3 µM. Besides, the TGI in test [1], in [2], in test [3], in test [4], in test [5] and in test [6] was over 25 µM throughout. For the same compound, the TGI in test [7], in test [8], in test [9] and in test [10] was over 25 µM each time.

For the compound `N/N=C1\CC(=O)NC(=O)N1`, the TGI in test [1], in [2], in [3], in test [4], in test [5] and in [6] was over 100 µM each time. In addition, the TGI in [7], in test [8], in [9] and in test [10] was over 100 µM in each case.

Take `C#CCOc1cccc(Nc2ncnc3c(NC(=O)CCl)cccc23)c1`: the GI50 in test [1] is 18.1 µM; in test [2], 16.1 µM; in test [3], 33.4 µM; in test [4], 17.4 µM; in [5] it was 20.3 µM; in test [6], 10.7 µM. The GI50 in test [7] is 20.9 µM; in test [8], 32 µM; in test [9], 22.8 µM; in [10], 19.3 µM. Moreover, the TGI in [1] was 37.8 µM; in [2], 35 µM; in test [3], over 100 µM; in [4], 37.8 µM; in test [5] it was 40.9 µM; in test [6], 35.9 µM. Further, the TGI in [7] is 43.9 µM; in test [8] it was over 100 µM; in test [9], 55.6 µM; in test [10], 62.5 µM.

Take `Cc1c(C2=C(c3cn(C)c4ccccc34)C(=O)NC2=O)c2ccccc2n1C`: the GI50 was 4.57 µM in test [1]; over 25 µM in test [2]; 4.33 µM in [3]; 3.87 µM in test [4]; 1.26 µM in test [5]; 1.47 µM in test [6]. Also, the GI50 is over 13.8 µM in test [7], 3.65 µM in test [8], 4.38 µM in [9] and 2.09 µM in test [10]. Further, the TGI in [1], in test [2], in test [3], in [4], in [5] and in [6] was over 25 µM in each case. The TGI in test [7], in test [8], in test [9] and in [10] was over 25 µM in each case.

Take `O=C(O)COc1c(Cl)cc(Cl)c2cccnc12`: the TGI in test [1], in test [2], in [3], in test [4], in test [5] and in [6] was over 100 µM throughout. The TGI in test [7], in test [8], in [9] and in test [10] was over 100 µM throughout.

Take `CCN1C(=O)N(CC)C2C1NN=c1s/c(=C3\C(=O)N(CCc4ccccc4)c4ccccc43)c(=O)n12` (stereo not drawn): the GI50 in [1] is 0.767 µM; in [2] it was 1.04 µM; in test [3] it was 0.811 µM; in [4], 0.38 µM; in test [5], 0.492 µM; in test [6], 2.58 µM. Also, the GI50 is 0.608 µM in [7], 0.378 µM in [8], 0.415 µM in test [9] and 1.49 µM in test [10]. For the same compound, the TGI was 20 µM in test [2]; 3.78 µM in test [3]; 11.2 µM in [4]; over 100 µM in [5]; over 100 µM in test [6]; 6.48 µM in [8]. For the same compound, the TGI in test [9] is over 21.8 µM; in [10], 4.97 µM.

On to `Cn1cncc1CC1COC(=O)C1C(O)c1ccccc1` (stereo not drawn), for which the TGI in [1], in test [2], in test [3], in test [4], in test [5] and in [6] was over 100 µM in each case. The TGI in [7], in test [8], in test [9] and in [10] was over 100 µM each time.

For the compound `CC(=O)c1c(C(F)(F)F)n([O-])c2ccc(C)cc2[n+]1=O`, the GI50 is 3.44 µM in [1]; 2.54 µM in test [2]; 1.71 µM in test [3]; 5.04 µM in test [4]; 3.54 µM in test [5]; 0.555 µM in test [6]. The GI50 in test [7] is 0.686 µM; in test [8], 3.34 µM; in [9], 1.34 µM; in [10] it was 2.54 µM. The TGI in [1] is 20.4 µM; in test [2], 15.6 µM; in test [3], 6.85 µM; in test [4], over 52.2 µM; in test [5], over 100 µM; in test [6], 4.83 µM. The TGI in [7] is 4.04 µM; in [8] it was over 35.5 µM; in [9], 14.1 µM; in test [10] it was 8.66 µM.

`CSC(=S)N/N=C(\C)c1cccc(C)n1`: the TGI in [1] was 3.48 µM; in [2], 10 µM; in [3], 10.7 µM; in test [4], 42.6 µM; in test [5], over 56.9 µM; in [6], 0.102 µM. In addition, the TGI is 1.51 µM in [7], over 36.3 µM in test [8], 36.3 µM in [9] and 57.7 µM in [10].

As for `Cn1cc(-c2nonc2-c2cn(C)c3ccccc23)c2ccccc21`, the GI50 is 1.47 µM in [1]; 1.06 µM in test [2]; 3.25 µM in test [3]; 0.661 µM in [4]; 0.425 µM in [5]; 0.703 µM in test [6]. The GI50 was 0.967 µM in test [7], 0.626 µM in test [8], 1.42 µM in test [9] and 1.37 µM in test [10]. Also, the TGI in test [1], in test [2], in [3], in [4], in [5] and in test [6] was over 100 µM each time. Besides, the TGI in [7], in [8], in [9] and in [10] was over 100 µM each time.

As to `CC1NC(=O)C(NC(=O)c2cnc3ccccc3n2)COC(=O)C(C(C)C)N(C)C(=O)C2CSSCC(C(=O)N(C)C(C(C)C)C(=O)OCC(NC(=O)c3cnc4ccccc4n3)C(=O)NC(C)C(=O)N2C)N(C)C1=O` (stereo not drawn) (I: Quinoxaline2carbonyl-SA[NMeC][NMeV] / II: Quinoxaline2carbonyl-SA[NMeC][NMeV]; ester I:1-II:C, I:C-II:1; disulfide I:3-II:3; configuration not given here), the TGI in test [1] was 11.9 µM; in [2] it was under 0.01 µM; in test [3], 0.0237 µM; in test [4], 3.17 µM; in test [5], 2.98 µM; in [6], 0.229 µM. For the same compound, the TGI in test [7] was under 0.01 µM; in [8] it was 0.662 µM; in test [9], 1.68 µM; in test [10], under 0.01 µM.

Consider `CC(C)(C)CN1CCn2c(nc3c(N)nccc32)S1`, for which the GI50 was 7.45 µM in test [1]; 7.72 µM in test [2]; 37.2 µM in test [3]; 4.23 µM in test [4]; 4.16 µM in test [5]; 10.2 µM in test [6]. In addition, the GI50 was 36.1 µM in [7], 17.1 µM in test [8], 11 µM in test [9] and 19.1 µM in test [10]. Also, the TGI was over 100 µM in [1]; 41.3 µM in [2]; over 100 µM in test [3]; 17.1 µM in test [4]; 30.1 µM in test [5]; over 100 µM in [6]. Further, the TGI is over 100 µM in [7], over 100 µM in [8], over 100 µM in test [9] and 66.1 µM in [10].
